In US20140187548A1, “6 SUBSTITUTED IMIDAZOPYRAZINES FOR USE AS MPS-1 AND TKK INHIBITORS IN THE TREATMENT OF HYPERPROLIFERATIVE DISORDERS” (BAYER INTELLECTUAL PROPERTY GMBH, priority 2010, published 2014):
Where a name gives a salt, the structure may show the parent alone.

Target: T1, human kinase Mps-1 (Homo sapiens, UniProt P33981)
T1 construct: N-terminally GST-tagged human full length recombinant Mps-1 kinase; GST (N); purchased Invitrogen, Karslruhe, Germany PV4071
T1 sequence (P33981 1-857): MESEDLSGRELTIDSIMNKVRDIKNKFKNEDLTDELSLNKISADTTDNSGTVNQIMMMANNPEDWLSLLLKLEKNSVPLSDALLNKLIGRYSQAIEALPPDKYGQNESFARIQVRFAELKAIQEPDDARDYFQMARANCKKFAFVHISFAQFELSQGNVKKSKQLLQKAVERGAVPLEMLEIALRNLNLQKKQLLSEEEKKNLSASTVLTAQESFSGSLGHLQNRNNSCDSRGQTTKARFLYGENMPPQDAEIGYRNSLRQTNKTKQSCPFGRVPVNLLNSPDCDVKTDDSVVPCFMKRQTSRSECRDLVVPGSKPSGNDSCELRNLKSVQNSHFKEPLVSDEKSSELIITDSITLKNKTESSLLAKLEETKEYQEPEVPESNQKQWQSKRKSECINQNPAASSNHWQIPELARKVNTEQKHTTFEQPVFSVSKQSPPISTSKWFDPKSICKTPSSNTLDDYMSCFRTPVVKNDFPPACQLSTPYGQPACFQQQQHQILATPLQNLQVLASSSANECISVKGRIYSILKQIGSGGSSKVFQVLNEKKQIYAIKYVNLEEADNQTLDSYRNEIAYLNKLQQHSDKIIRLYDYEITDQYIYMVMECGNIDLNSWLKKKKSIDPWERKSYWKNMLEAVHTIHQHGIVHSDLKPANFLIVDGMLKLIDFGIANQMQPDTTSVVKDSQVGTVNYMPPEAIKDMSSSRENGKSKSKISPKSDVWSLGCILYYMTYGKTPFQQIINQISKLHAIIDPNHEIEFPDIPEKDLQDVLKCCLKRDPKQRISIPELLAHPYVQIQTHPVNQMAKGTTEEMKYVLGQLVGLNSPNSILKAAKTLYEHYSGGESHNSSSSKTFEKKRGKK
Assay: Mps-1 kinase assay (TR-FRET)
Assay type: biochemical
Details: N-terminally GST-tagged human full length recombinant Mps-1; 10 μM ATP; 1 μM peptide substrate; 15 min pre-incubation; 60 min at 22° C.
Procedure: The human kinase Mps-1 phosphorylates a biotinylated substrate peptide. Detection of the phosphorylated product is achieved by time-resolved fluorescence resonance energy transfer (TR-FRET) from Europium-labelled anti-phospho-Serine/Threonine antibody as donor to streptavidin labelled with cross-linked allophycocyanin (SA-XLent) as acceptor. Compounds are tested for their inhibition of the kinase activity.
N-terminally GST-tagged human full length recombinant Mps-1 kinase (purchased from Invitrogen, Karslruhe, Germany, cat. no PV4071) was used. As substrate for the kinase reaction a biotinylated peptide of the amino-acid sequence […] (C-terminus in amide form, purchased from Biosynthan GmbH, Berlin) was used.
The concentration of Mps-1 in the assay was adjusted to the activity of the enzyme lot and was chosen appropriate to have the assay in the linear range, typical enzyme concentrations were in the range of about 1 nM (final conc. in the 5 μl assay volume).
The resulting mixture was incubated 1 h at 22° C. to allow the binding of the phosphorylated peptide to the anti-phospho(Ser/Thr)-Europium-antibody. Subsequently the amount of phosphorylated substrate was evaluated by measurement of the resonance energy transfer from the Europium-labelled anti-phospho(Ser/Thr) antibody to the Streptavidin-XLent. Therefore, the fluorescence emissions at 620 nm and 665 nm after excitation at 350 nm was measured in a Viewlux TR-FRET reader (PerkinElmer LAS, Rodgau-Jügesheim, Germany). The “blank-corrected normalized ratio” (a Viewlux specific readout, similar to the traditional ratio of the emissions at 665 nm and at 622 nm, in which blank and Eu-donor crosstalk are subtracted from the 665 nm signal before the ratio is calculated) was taken as the measure for the amount of phosphorylated substrate.

| SMILES | IC50 [nM] |
| --- | --- |
| O=C(NC1CC1)c1ccc(-c2cnc3c(NCCc4ccncc4)nc(-c4ccccc4)cn23)cc1 [Example 2-41, N-cyclopropyl-4-(6-phenyl-8-{[2-(pyridin-4-yl)ethyl]amino}imidazo[1,2-a]pyrazin-3-yl) benzamide] | 5.5 |
| Cc1cc(C)cc(-c2cn3c(-c4ccc(C(=O)NC5CC5)cc4)cnc3c(NCC(C)C)n2)c1 [Example 1-39, N-cyclopropyl-4-{6-(3,5-dimethylphenyl)-8-[(2-methylpropyl)amino]imidazo[1,2-a]pyrazin-3-yl}benzamide] | 32.3 |
| NCCCNc1nc(-c2ccccc2)cn2c(-c3ccc(C(=O)NC4CC4)cc3)cnc12 [Example 8-1, 4-{8-[(3-Aminopropyl)amino]-6-phenylimidazo[1,2-a]pyrazin-3-yl}-N-cyclopropylbenzamide hydrochloride] | 21.1 |
| CC(C)CNc1nc(-c2ccc(CCO)cc2)cn2c(-c3ccc(C(=O)NC4CC4)cc3)cnc12 [Example 6-1, N-cyclopropyl-4-{6-[4-(2-hydroxyethyl)phenyl]-8-(isobutylamino)imidazo[1,2-a]pyrazin-3-yl}benzamide] | 1 |
| CC(C)CNc1nc(-c2ccc(SC3CC3)cc2)cn2c(-c3ccc(C(=O)NC4CC4)cc3)cnc12 [Example 1-127, N-cyclopropyl-4-{6-[4-(cyclopropylsulfanyl)phenyl]-8-[(2-methylpropyl)amino]imidazo[1,2-a]pyrazin-3-yl} benzamide] | 32.2 |
| CN1CCCC1CCNc1nc(-c2ccccc2)cn2c(-c3ccc(C(=O)NC4CC4)cc3)cnc12 (centres unmarked) [Example 2-10, N-cyclopropyl-4-(8-{[2-(1-methylpyrrolidin-2-yl)ethyl]amino}-6-phenylimidazo[1,2-a]pyrazin-3-yl)benzamide] | 16.6 |
| O=C(NC1CC1)c1ccc(-c2cnc3c(NCc4cc[nH]n4)nc(-c4ccccc4)cn23)cc1 [Example 2-55, N-cyclopropyl-4-{6-phenyl-8-[(1H-pyrazol-3-ylmethyl)amino]imidazo[1,2-a]pyrazin-3-yl} benzamide] | 2.7 |
| CC(C)CNc1nc(-c2ccccc2Oc2ccccc2)cn2c(-c3ccc(C(=O)NC4CC4)cc3)cnc12 [Example 1-64, N-cyclopropyl-4-{8-[(2-methylpropyl)amino]-6-(2-phenoxyphenyl)imidazo[1,2-a]pyrazin-3-yl}benzamide] | 74.3 |
| CC(C)CNc1nc(-c2ccc(O)cc2)cn2c(-c3ccc(C(=O)NC4CC4)cc3)cnc12 [Example 1-67, N-cyclopropyl-4-{6-(4-hydroxyphenyl)-8-[(2-methylpropyl)amino]imidazo[1,2-a]pyrazin-3-yl}benzamide] | 3.5 |
| CCCc1cn2c(-c3ccc(C(=O)NC4CC4)cc3)cnc2c(NCC(C)C)n1 [Example 11-3, N-cyclopropyl-4-{8-[(2-methylpropyl)amino]-6-propylimidazo [1,2-a]pyrazin-3-yl}benzamide] | 5.4 |
| Cc1cc(-c2cnc3c(NCCC(F)(F)F)nc(-c4ccc(CO)cc4)cn23)ccc1C(=O)NC1CC1 [Example 1-123, N-cyclopropyl-4-{6-[4-(hydroxymethyl)phenyl]-8-[(3,3,3-trifluoropropyl)amino]imidazo[1,2-a]pyrazin-3-yl}-2-methyl-benzamide] | 1.2 |
| CNC(=O)CNc1nc(-c2ccccc2)cn2c(-c3ccc(C(=O)NC4CC4)cc3)cnc12 [Example 2-49, N-cyclopropyl-4-(8-{[2-(methylamino)-2-oxoethyl]amino}-6-phenylimidazo[1,2-a]pyrazin-3-yl)benzamide] | 32.2 |
| CC(C)CNc1nc(-c2cccc(Cl)c2)cn2c(-c3ccc(C(=O)NC4CC4)cc3)cnc12 [Example 1-37, 4-{6-(3-chlorophenyl)-8-[(2-methylpropyl)amino]imidazo[1,2-a]pyrazin-3-yl}-N-cyclopropyl-benzamide] | 15.2 |
| CN(C)c1ccc(CNc2nc(-c3ccccc3)cn3c(-c4ccc(C(=O)NC5CC5)cc4)cnc23)cc1 [Example 2-44, N-cyclopropyl-4-(8-{[4-(dimethylamino)benzyl]amino}-6-phenylimidazo[1,2-a]pyrazin-3-yl)benzamide] | 18.1 |
| Cc1cc(-c2cnc3c(NCCC(F)(F)F)nc(-c4ccc(F)c(CO)c4)cn23)ccc1C(=O)NC1CC1 [Example 1-124, N-cyclopropyl-4-{6-[4-fluoro-3-(hydroxymethyl)phenyl]-8-[(3,3,3-tri-fluoropropyl)amino]imidazo[1,2-a]pyrazin-3-yl}-2-methylbenzamide] | 1.1 |
| CC(C)CNc1nc(-c2ccccc2CO)cn2c(-c3ccc(C(=O)NC4CC4)c(F)c3)cnc12 [Example 1-111, N-cyclopropyl-2-fluoro-4-{6-[2-(hydroxymethyl)phenyl]-8-[(2-methyl-propyl)amino]imidazo [1,2-a]pyrazin-3-yl} benzamide] | 3 |
| CC(C)CNc1nc(-c2cccc([N+](=O)[O-])c2)cn2c(-c3ccc(C(=O)NC4CC4)cc3)cnc12 [Example 1-2, N-cyclopropyl-4-{8-[(2-methylpropyl)amino]-6-(3-nitrophenyl)imidazo [1,2-a]pyrazin-3-yl} benzamide] | 5.5 |
| O=C(NC1CC1)c1ccc(-c2cnc3c(NCC4CCCCO4)nc(-c4ccccc4)cn23)cc1 (centres unmarked) [Example 2-65, N-cyclopropyl-4-{6-phenyl-8-[(tetrahydro-2H-pyran-2-ylmethyl)amino]imidazo[1,2-a]pyrazin-3-yl}benzamide] | 1.3 |
| Cc1ccc(-c2cn3c(-c4ccc(C(=O)NC5CC5)cc4)cnc3c(NCC(C)C)n2)cc1Cl [Example 1-80, 4-{6-(3-chloro-4-methyl-phenyl)-8-[(2-methylpropyl)amino]imidazo [1,2-a]pyrazin-3-yl}-N-cyclopropylbenzamide] | 20.7 |
| NCCCCCNc1nc(-c2ccccc2)cn2c(-c3ccc(C(=O)NC4CC4)cc3)cnc12 [Example 2-79, 4-{8-[(5-Aminopentyl)amino]-6-phenylimidazo[1,2-a]pyrazin-3-yl}-N-cyclopropylbenzamide] | 3.2 |
| CC(C)CNc1nc(-c2ccc(Cl)c(Cl)c2)cn2c(-c3ccc(C(=O)NC4CC4)cc3)cnc12 [Example 1-45, N-cyclopropyl-4-{6-(3,4-dichlorophenyl)-8-[(2-methylpropyl)amino]imidazo[1,2-a]pyrazin-3-yl}benzamide] | 22.6 |
| O=C(NC1CC1)c1ccc(-c2cnc3c(NCc4ccoc4)nc(-c4ccccc4)cn23)cc1 [Example 2-76, N-cyclopropyl-4-{8-[(3-furylmethyl)amino]-6-phenylimidazo[1,2-a]pyrazin-3-yl}benzamide] | 2.8 |
| O=C(NC1CC1)c1ccc(-c2cnc3c(NCCCN4CCOCC4)nc(-c4ccccc4)cn23)cc1 [Example 2-3, N-cyclopropyl-4-(8-{[3-(morpholin-4-yl)propyl]amino}-6-phenylimidazo[1,2-a]pyrazin-3-yl)benzamide] | 6.9 |
| CC(C)CNc1nc(-c2ccc(F)cc2)cn2c(-c3ccc(C(=O)NC4CC4)c(Cl)c3)cnc12 [Example 1-93, 2-chloro-N-cyclopropyl-4-{6-(4-fluorophenyl)-8-[(2-methylpropyl)amino]imidazo[1,2-a]pyrazin-3-yl}benzamide] | 18 |
| Cn1nccc1CNc1nc(-c2ccccc2CO)cn2c(-c3ccc(C(=O)NC4CC4)c(F)c3)cnc12 [Example 1-121, N-cyclopropyl-2-fluoro-4-(6-[2-(hydroxymethyl)phenyl]-8-{[(1-methyl-1H-pyrazol-5-yl)methyl]amino}imidazo[1,2-a]pyrazin-3-yl)benzamide] | 11.1 |
| CC(C)CNc1nc(-c2cccc(OC(C)C)c2)cn2c(-c3ccc(C(=O)NC4CC4)cc3)cnc12 [Example 1-29, N-cyclopropyl-4-{8-[(2-methylpropyl)amino]-6-[3-(propan-2-yloxy)phenyl]imidazo[1,2-a]pyrazin-3-yl}benzamide] | 15.1 |
